Like-named read-outs stand apart in the source and are kept apart here.
Legend:
Format in all cases: cell-based
IL-4 = assay: Cytokine assay: IL-4 release from PHA-L stimulated human PBMCs; conditions: read-out: IL4 IC50
Description: (§1) Cytokine inhibitory activity is determined by measuring the effect of test agent on the release of the cytokines IL-4, IL-13 and IFNγ from human peripheral blood mononuclear cells (PBMCs) stimulated with the T-cell mitogen phytohemagglutinin-L (PHA-L). At the time of assay, human PBMCs (Astarte Biologics) are removed from cryopreservation, thawed quickly at 37° C., diluted in assay medium (RPMI-Gibco 1640 medium, 10% heat inactivated fetal bovine serum (HIFBS), 2 mM glutamine and 10 mM HEPES pH 7.4) and then centrifuged at 250×g for 5 minutes. The resulting cell pellet is re-suspended in assay medium to a concentration of approximately 5×10^6 cells/mL and 50 μL of this cell suspension (approximately 250,000 cells) is added to each well of a 384-well cell culture microtiter plate (Perkin Elmer). Varying concentrations of test compound are then diluted in assay medium and added to the assay plate wells in a volume of 25 μL. After −10 minutes at room temperature (21° C.) the cells are stimulated by the addition of 25 μL of PHA-L (14 μg/mL; Millipore) and the assay plate is placed in an incubator at 37° C. in a humidified environment in 5% carbon dioxide. The final assay conditions are approximately 250,000 human PBMCs per well in assay medium containing 3.5 μg/mL PHA-L and the indicated final concentration of test compound (approximately 10 μM to […] by 4-fold dilution). The final concentration of DMSO in the assay is approximately 0.25%. After 48 hours, the assay plate is removed from the incubator and centrifuged at 250×g for 5 minutes. A portion of the resulting cell supernatant is then used to determine the amount of IL-4, IL-13 and IFNγ in each well. Cytokine measurements are made using human IL-4, IL-13 or IFNγ HTRF assay kits (CisBio) following the manufacturer's assay protocol. The concentrations and resulting effect values for tested compounds are plotted and the concentration of compound required for 50% effect (IC50) is determined with a four-parameter logistic dose response equation (E-WorkBook, ID Business Solutions Ltd.) and shown in Table 17.

IL-13 = assay: Cytokine assay: IL-13 release from PHA-L stimulated human PBMCs; conditions: read-out: IL13 IC50
Description: as §1

IFNγ = assay: Cytokine assay: IFNγ release from PHA-L stimulated human PBMCs
Description: as §1

| IC50 (IL-4; Homo sapiens, PBMC) | IC50 (IL-13; Homo sapiens, PBMC) | IC50 (IFNγ; Homo sapiens, PBMC) | IC50 (IL-4) | IC50 (IL-13) | IC50 (IFNγ) | Compound |
| --- | --- | --- | --- | --- | --- | --- |
| 11.6 nM | 591 nM | 5.7 nM | – | – | – | COc1ccc(-c2nc(C3COB(O)C3)ccc2F)cc1OC1CCCC1 (stereo not drawn) [Example 131, 4-(6-(3-(cyclopentyloxy)-4-methoxyphenyl)-5-fluoropyridin-2-yl)-1,2-oxaborolan-2-ol] |
| – | – | – | 42 nM | 1910 nM | 18.8 nM | CCOc1cc(-c2cncc(C3COB(O)C3)c2)c(C)cc1OC (single isomer, unassigned) [Example 71, 4-(5-(5-ethoxy-4-methoxy-2-methylphenyl)pyridin-3-yl)-1,2-oxaborolan-2-ol] |
| 12.4 nM | 450 nM | 3.88 nM | – | – | – | CCOc1cc(-c2cncc(C3COB(O)C3)c2)cc(Cl)c1OC (stereo not drawn) [Example 45, 4-(5-(3-chloro-5-ethoxy-4-methoxyphenyl)pyridin-3-yl)-1,2-oxaborolan-2-ol] |
| – | – | – | 4.31 nM | 890 nM | 2.85 nM | CCOc1cc(-c2cncc(C3COB(O)C3)c2)c(C)cc1OC (single isomer, unassigned) [Example 70, 4-(5-(5-ethoxy-4-methoxy-2-methylphenyl)pyridin-3-yl)-1,2-oxaborolan-2-ol] |
| – | – | – | 7.14 nM | 426 nM | 1.07 nM | CCCOc1c(OC)ccc(-c2cncc(C3COB(O)C3)c2)c1F (stereo not drawn) [Example 82, 4-(5-(2-fluoro-4-methoxy-3-propoxphenyl)pyridin-3-yl)-1,2-oxaborolan-2-ol] |
| 4.4 nM | 166 nM | 3.21 nM | – | – | – | CCCOc1cc(-c2cncc(C3COB(O)C3)c2)c(F)cc1OC (stereo not drawn) [Example 49, 4-(5-(2-fluoro-4-methoxy-5-propoxyphenyl)pyridin-3-yl)-1,2-oxaborolan-2-ol] |
| 83.9 nM | 706 nM | 5.02 nM | – | – | – | CCOc1cc(-c2cncc(C3COB(O)C3)c2)ccc1SC (stereo not drawn) [Example 144, 4-(5-(3-ethoxy-4-(methylthio)phenyl)pyridin-3-yl)-1,2-oxaborolan-2-ol] |
| – | – | 2.81 nM | 34 nM | 465 nM | – | CCOc1ccc(-c2cncc(C3COB(O)C3)c2)cc1OCC (single isomer, unassigned) [Example 97, 4-(5-(3,4-diethoxyphenyl)pyridin-3-yl)-1,2-oxaborolan-2-ol] |
| – | – | – | 36.1 nM | 497 nM | 3.81 nM | CCCOc1cc(-c2cncc(C3COB(O)C3)c2)ccc1SC (stereo not drawn) [Example 113, 4-(5-(4-(methylthio)-3-propoxyphenyl)pyridin-3-yl)-1,2-oxaborolan-2-ol] |
| 32.7 nM | – | – | – | 472 nM | 4.32 nM | CSc1ccc(-c2cncc(C3COB(O)C3)c2)cc1OC1CCCC1 (single isomer, unassigned) [Example 100, 4-(5-(3-(cyclopentyloxy)-4-(methylthio)phenyl)pyridin-3-yl)-1,2-oxaborolan-2-ol] |
| 1.04 nM | 234 nM | 1.52 nM | – | – | – | CCCOc1cc(-c2cncc(C3COB(O)C3)c2)ccc1OC(F)F (stereo not drawn) [Example 50, 4-(5-(4-(difluoromethoxy)-3-propoxyphenyl)pyridin-3-yl)-1,2-oxaborolan-2-ol] |
| 11.7 nM | 670 nM | 2.43 nM | – | – | – | CCCOc1cc(-c2cc(C3COB(O)C3)cnn2)ccc1OC (single isomer, unassigned) [Example 136, 4-(6-(4-methoxy-3-propoxyphenyl)pyridazin-4-yl)-1,2-oxaborolan-2-ol] |
| 32.7 nM | 2910 nM | 21.5 nM | – | – | – | CCCOc1cc(-c2cncc(C3COB(O)C3)c2)ccc1SC (single isomer, unassigned) [Example 114, 4-(5-(4-(methylthio)-3-propoxyphenyl)pyridin-3-yl)-1,2-oxaborolan-2-ol] |
| 186 nM | 814 nM | 5.34 nM | – | – | – | COc1ccc(-c2cccc(C3COB(O)C3)n2)cc1OC1CCCC1 (stereo not drawn) [Example 65, 4-(6-(3-(cyclopentyloxy)-4-methoxyphenyl)pyridin-2-yl)-1,2-oxaborolan-2-ol] |
| – | – | – | 26 nM | 2650 nM | 13.3 nM | CSc1ccc(-c2cncc(C3COB(O)C3)c2)cc1OC1CCCC1 (single isomer, unassigned) [Example 101, 4-(5-(3-(cyclopentyloxy)-4-(methylthio)phenyl)pyridin-3-yl)-1,2-oxaborolan-2-ol] |
| – | – | – | 22.1 nM | 493 nM | 4.35 nM | COc1ccc(-c2cncc(C3COB(O)C3)c2)c(F)c1OC (stereo not drawn) [Example 108, 4-(5-(2-fluoro-3,4-dimethoxyphenyl)pyridin-3-yl)-1,2-oxaborolan-2-ol] |

Further lines, the molecule ahead of its results:

| Compound | IC50 (IL-4; Homo sapiens, PBMC) | IC50 (IL-13; Homo sapiens, PBMC) | IC50 (IFNγ; Homo sapiens, PBMC) | IC50 (IL-4) | IC50 (IL-13) | IC50 (IFNγ) |
| --- | --- | --- | --- | --- | --- | --- |
| CCCOc1cc(-c2cc(CO)cc(C3COB(O)C3)n2)ccc1OC (stereo not drawn) [Example 64, 4-(4-(hydroxymethyl)-6-(4-methoxy-3-propoxphenyl)pyridin-2-yl)-1,2-oxaborolan-2-ol] | 8.04 nM | 325 nM | 4.44 nM | – | – | – |
| CCCOc1cc(-c2cc(C3COB(O)C3)cnn2)ccc1OC (stereo not drawn) [Example 137] | 37.2 nM | 1090 nM | 2.52 nM | – | – | – |
| COc1cnc(-c2cccc(C3COB(O)C3)c2)nc1OC (stereo not drawn) [Example 122, 4-(3-(4,5-dimethoxypyrimidin-2-yl)phenyl)-1,2-oxaborolan-2-ol] | 362 nM | 567 nM | 7.49 nM | – | – | – |
| CCCOc1cc(-c2nc(COC)cc(C3COB(O)C3)n2)ccc1OC (stereo not drawn) [Example 102, 4-(2-(4-methoxy-3-propoxyphenyl)-6-(methoxymethyl)pyrimidin-4-yl)-1,2-oxaborolan-2-ol] | 2.07 nM | 1240 nM | 3.01 nM | – | – | – |
| CCCOc1cc(-c2nc(COC)cc(C3COB(O)C3)n2)ccc1OC (single isomer, unassigned) [Example 103, 4-(2-(4-methoxy-3-propoxyphenyl)-6-(methoxymethyl)pyrimidin-4-yl)-1,2-oxaborolan-2-ol] | 0.83 nM | 487 nM | 0.76 nM | – | – | – |
| COc1ccc(-c2cccc(C3COB(O)C3)n2)cc1OC (stereo not drawn) [Example 197, 4-(6-(3,4-dimethoxyphenyl)pyridin-2-yl)-1,2-oxaborolan-2-ol] | 107 nM | 1580 nM | 12.2 nM | – | – | – |
| CCCOc1cc(-c2nc(C(C)O)cc(C3COB(O)C3)n2)ccc1OC (stereo not drawn) [Example 83, 4-(6-(1-hydroxyethyl)-2-(4-methoxy-3-propoxyphenyl)pyrimidin-4-yl)-1,2-oxaborolan-2-ol] | 9.42 nM | 439 nM | 4.73 nM | – | – | – |
| CCCOc1cc(-c2cccc(C3COB(O)C3)n2)ccc1OC (stereo not drawn) [Example 127, 4-(6-(4-methoxy-3-propoxyphenyl)pyridin-2-yl)-1,2-oxaborolan-2-ol] | 62.6 nM | 585 nM | 2.84 nM | – | – | – |
| CCCOc1cc(-c2nc(OCCO)cc(C3COB(O)C3)n2)ccc1OC (stereo not drawn) [Example 195, 4-(6-(2-hydroxyethoxy)-2-(4-methoxy-3-propoxyphenyl)pyrimidin-4-yl)-1,2-oxaborolan-2-ol] | 0.36 nM | 2190 nM | 0.33 nM | – | – | – |
| CCCOc1c(OC)ccc(-c2cccc(C3COB(O)C3)c2)c1F (stereo not drawn) [Example 116, 4-(2′-fluoro-4′-methoxy-3′-propoxy-[1,1′-biphenyl]-3-yl)-1,2-oxaborolan-2-ol] | 42 nM | 508 nM | 2.45 nM | – | – | – |
| COc1ccc(-c2cccc(C3COB(O)C3)c2)c(C#N)c1OC (stereo not drawn) [Example 177, 3′-(2-hydroxy-1,2-oxaborolan-4-yl)-3,4-dimethoxy-[1,1′-biphenyl]-2-carbonitrile] | 155 nM | 1220 nM | 8.49 nM | – | – | – |
| COc1ccc(-c2cccc(C3COB(O)C3)c2)cc1OCC(C)C (stereo not drawn) [Example 183, 4-(3′-isobutoxy-4′-methoxy-[1,1′-biphenyl]-3-yl)-1,2-oxaborolan-2-ol] | 102 nM | 1370 nM | 6.4 nM | – | – | – |
